Consider 1 compound from ChEMBL document CHEMBL6177952, “Exploring chloro-isoxazole compounds inspired on tetrahydrofuran neolignans as promising antileishmanial agents” (Eur J Med Chem, 2025).

Activity calls are given as the source filed them. The rule behind the calls is not given here.

Data set [1] in a line: Mutagenicity in Salmonella typhimurium TA100 assessed as number of revertant colonies per plate at 1500 microg/ml by Ames test. To be noted: salmonella enterica subsp. enterica serovar typhimurium; dose 1500 µg/ml. Type of data set: toxicity.
In data set [2] the test system is Leishmania amazonensis. Nature of the data set: Antileishmanial activity against leishmania amazonensis infected in BALB/c mouse assessed as reduction in footpad swelling at 5 mg/kg, ILES measured at week 5. Format: functional, organism-based. To be noted: time 5.0 weeks.
The subject of data set [3] is Leishmania amazonensis. Briefly: Antileishmanial activity against Leishmania amazonensis promastigotes assessed as necrotic parasites at 38.1 uM incubated for 24 hrs by Annexin V/7-AAD staining based flow cytometry analysis relative to control. Type of data set: functional. (In general: In flow cytometry, cells or beads pass a laser one at a time.)
The subject of another data set is Mitochondrial membrane. Briefly: Induction of mitochondrial membrane potential in Leishmania amazonensis promastigotes at 38.1 uM measured at 48 hrs by flow cytometry analysis. Format: cell membranes.
Data set [4] is described as follows: Mutagenicity in Salmonella typhimurium TA102 assessed as number of revertant colonies per plate at 50 microg/ml by Ames test. To be noted: salmonella enterica subsp. enterica serovar typhimurium; dose 50 µg/ml. Format: toxicity. For orientation: The Ames test uses bacterial strains that need an amino acid and regain growth without it when mutated back.
Data set [5] relates to Leishmania amazonensis. Nature of the data set: Antileishmanial activity against leishmania amazonensis IFLA/BR/1967/PH8 promastigotes infected in mouse Peritoneal macrophage incubated for 24 hrs. Format: functional, organism-based. To be noted: IFLA/BR/1967/PH8, Peritoneal macrophage.
Data set [6] relates to Leishmania amazonensis. Nature of the data set: Antileishmanial activity against leishmania amazonensis infected in BALB/c mouse assessed as reduction in viable parasites in footpad tissue at 5 mg/kg, ILES measured after 65 days post infection relative to control. Format: functional. The settings on record: time 65 day.
Data set [7] relates to Leishmania amazonensis. Nature of the data set: Antileishmanial activity against Leishmania amazonensis promastigotes assessed as early apoptotic parasites at 38.1 uM incubated for 24 hrs by Annexin V/7-AAD staining based flow cytometry analysis relative to control. Format: functional.
A short description of data set [8]: Mutagenicity in Salmonella typhimurium TA98 assessed as number of revertant colonies per plate at 1500 microg/ml by Ames test. Type of data set: toxicity. To be noted: salmonella enterica subsp. enterica serovar typhimurium; dose 1500 µg/ml.
In data set [9] the test system is Leishmania amazonensis. Nature of the data set: Potency index, ratio of pentamidine IC50 to test compound IC50 for antileishmanial activity against leishmania amazonensis IFLA/BR/1967/PH8 promastigotes infected in mouse Peritoneal macrophage incubated for 24 hrs. Format: functional.
Data set [10] is described as follows: Mutagenicity in Salmonella typhimurium TA100 assessed as number of revertant colonies per plate at 500 microg/ml by Ames test. Type of data set: toxicity. To be noted: salmonella enterica subsp. enterica serovar typhimurium; dose 500 µg/ml.
For data set [11], the system named is Leishmania amazonensis. Nature of the data set: Antileishmanial activity against leishmania amazonensis infected in BALB/c mouse assessed as reduction in parasitism in draining lymph node at 5 mg/kg, ILES measured after 65 days post infection by limiting dilution assay. Format: functional, organism-based. To be noted: time 65.0 day.

Turning to `COc1cc(-c2cc(-c3ccc4c(c3)OCO4)on2)c(Cl)c(OC)c1OC`, the Activity worked out at 116 revertants/plate in data set [1], 0.3% in the data set with Leishmania amazonensis [3], 99.5% in the data set with Leishmania amazonensis [6] and 0.8% in the data set on Leishmania amazonensis [7]. Also, the outcome in the data set on Leishmania amazonensis [2], with Mitochondrial membrane and in the data set on Leishmania amazonensis [11] was Active. The revertant count came out at 139 revertants/plate in data set [4], 32.7 revertants/plate in data set [8] and 123 revertants/plate in data set [10]. This compound yielded an IC50 with Leishmania amazonensis [5] of 38.1 µM. Besides, the “Ratio IC50” value with Leishmania amazonensis [9] is 29.

One may read the IC50 as the concentration needed to halve the response being measured. Lower therefore signals higher potency.
